Entries after “also recorded” stand apart in the source; their conditions may differ. Counter-ions that a name gives are not always drawn.
Columns and labels:
platelet adhesivity = assay: in vivo platelet adhesivity in thrombin-sensitized rabbit; details: thrombin 20 U i.v.
Procedure: (§1) The technique used is that described in the study "Disseminated and localized intravascular coagulations" of C. Raby, Masson et Cie, 1970, p. 91-93.
(§2) The parameter used in this technique is the level of platelet adhesivity. The blood to be tested is run through a column of glass beads. Platelet counts are carried out on the blood before and after passage respectively through the glass beads. The difference between these two counts enables the level of platelet adhesivity to be estimated. Comparison of the adhesivity ratios, measured in the treated animals and in the controlled animals, enables the effect of the product under test to be estimated.
In the in vivo test the animal to be tested (the rabbit) is injected with thrombin (20 U) by the intravenous route, for the purpose of sensitizing the platelets, and the product under study is then injected. The behavior of the platelets is studied by samples taken before and after administration of the product under study.
(§3) Papaverine thienyl-2-carboxylate has, in all these tests, been applied in the dissolved state in a 1 % aquous solution of methanol in isotonic chloride solution, in the proportion of 13 mg of papaverine thienyl-2-carboxylate per 100 ml of this solution.
30 Animals were treated in the in vivo tests:
10 animals with the thrombin alone (control animals), […]

[1] = test system: unilateral cerebral oedema; assay: unilateral cerebral oedema: cortical electrogenesis ("R" index) and residual cortical reactivity, intraduodenal route; type: in vivo, rabbit
Procedure: The effect of a medicament on the oxygen and glucose metabolisms is estimated, in this test, by the reduction in the deleterious effects of oedema on certain parameters with respect to the controls.
The technique used is that described in the work "Aggressology" 1972, 13, Vol. IV, p. 257-259 (M.G. Borzex, M. Labos, J. Cahn). The principle of the test consists of producing unilateral ablation of a bone flap of 7 to 10 mm diameter in the occipital region. The incision, 48 hours later, of the dura mater or dural (membrane which surrounds the brain) results in the formation of an oedema.
Two essential parameters are selected to judge the seriousness of the oedematous effect and to subsequently permit estimation of the effects of the compound under study: electrogenesis on the "injured" hemisphere and the development of residual cortical reactivity in this same hemisphere.
The electrogenesis is judged by variations in the index (R), defined as the ratio of the number of rapid rhythms (theta arousal rhythm) to the number of slow waves of the electrocorticogram (determined by electroencephalography). On the injured side, the size of the slow waves tends to increase and that of the thetarhythm connected with the arousal response to be eliminated.
The residual cortical reactivity of the hemisphere carrying the cerebral oedema expresses the percentage of reactivity which persists with regard to a sensorial stimulation (auditive stimulation or nociceptive stimulation of the cutanous nerve ends by pinching of the dorsal skin) despite the oedematous degradation.
An active medicament tends to increase the value of the "R" index and to reestablish the residual cortical reactivity of the animals which have undergone the operation. The activities of the medicament expressed in % growth for the index R, and in % growth for the residual cortical reactivity, are compared with results observed in the controls.
The study was carried out on 42 male rabbits, active, of average weight 2.5 kg (and in eight control animals). The product to be tested (papaverine thienyl-2-carboxylate) was administered by the intraduodenal route, […] after ablation of the bone flap and just before the incision of the dural. This route of administration was selected since it is equivalent to the administration by the oral route.
The rabbits studied were divided in the following manner:
a series of eight "control" animals receiving 2 ml/kg of isotonic chloride solution;
three series of eight rabbits, each having received respectively 5, 10 and 20 mg/kg of papaverine hydrochloride;
two series of eight animals, each receiving respectively 6.2 and 12.4 mg/kg of papaverine thienyl-2-carboxylate (dissolved in alcoholized water, containing 1 ml of alcohol per 30 ml of water);
lastly, two rabbits receiving 2 mg/kg of papaverine hydrochloride dissolved in alcoholized water.
The doses of 5 and 10 mg/kg of papaverine hydrochloride correspond respectively to doses of 6.2 and 12.4 mg/kg of papaverine thienyl-2-carboxylate, if reduced to the corresponding doses of papaverine-base (respectively 4.51 and 9.02 mg/kg).
The development of the two above indicated parameters (expressed below in average values) is observed for 30 hours following the incision of the dural.

LD50 by the oral route = details: in vivo, mouse
Excerpt: Study of the LD50 (by the oral route) in the mouse has established the complete inoccuousness of papaverine thienyl-carboxylates.

solubility = type: physicochemical
[2] = test system: platelet adhesivity (blood); assay: in vitro platelet adhesivity (glass bead column, Raby technique); type: cell-based; details: at equal doses expressed in terms of papaverine base
Procedure: as §1, §2
In in vitro test the levels of platelet adhesivity measured on control specimens of blood and on blood specimens to which have previously been added doses of the product under test, are compared.
as §3

[3] = test system: platelet adhesivity; disturbances of electrogenesis at the level of the brain; assay: overall comparison of papaverinic activity (platelet adhesivity, brain disturbances, cortical reactivity); details: associated with / expressed as papaverine base
[4] = administration in repeated doses; cited from earlier work

## COc1ccc(Cc2nccc3cc(OC)c(OC)cc23)cc1OC [papaverine citrate, reference compound]
Platelet adhesivity; 32 γ/ml (20 γ/ml papaverine base)
  effect on platelet adhesivity: inactive

## COc1ccc(Cc2nccc3cc(OC)c(OC)cc23)cc1OC [papaverine hydrochloride, reference compound]
[1]; 5 mg/kg intraduodenal (4.51 mg/kg papaverine base), hydrochloride
  activity in cerebral oedema: practically inactive; also recorded: practically ineffective
[1]; 10 mg/kg intraduodenal
  treated animals with biological effect: about 50%
[1]; 10 mg/kg intraduodenal, 2 hours following administration
  rabbits with improved residual cortical reactivity: four rabbits out of eight
[1]; 10 mg/kg intraduodenal, 2 hours following administration, average in eight rabbits
  improvement of residual cortical reactivity (average): 29%
[1]; 10 mg/kg intraduodenal, between 4 and 6 hours
  rise in the "R" index: 14%
[1]; 10 mg/kg intraduodenal, first 4 hours
  rise in the "R" index: 19%
[1]; 20 mg/kg intraduodenal
  animals affected ("R" ratio): six animals in eight
[1]; 20 mg/kg intraduodenal, between 4 and 6 hours
  improvement of residual cortical reactivity: about 23%
[1]; 20 mg/kg intraduodenal, during 4 hours, same proportion as "R" ratio
  improvement of residual cortical reactivity: improved in the same proportion

## COc1ccc(Cc2nccc3cc(OC)c(OC)cc23)cc1OC [papaverine thienyl-2-carboxylate]
LD50 by the oral route
  LD50 at 48 h: 1300 mg/kg
[1]; 6.2 mg/kg intraduodenal
  activity in cerebral oedema: active
  effect compared with papaverine hydrochloride 20 mg/kg: rather similar to that exerted by a dose of 20 mg/kg of papaverine hydrochloride
[1]; 6.2 mg/kg intraduodenal (4.51 mg/kg papaverine base)
  rabbits with very distinct improvement of the two parameters: five rabbits out of eight
[1]; 6.2 mg/kg intraduodenal, between second and fourth hours, average in eight rabbits
  extension in the duration of the arousal reactions on the injured hemisphere: 45.4%
[1]; 6.2 mg/kg intraduodenal, five rabbits out of eight
  duration of improvement of the two parameters: at least 4 hours
[1]; 12.4 mg/kg intraduodenal
  effect compared with papaverine hydrochloride 20 mg/kg: slightly more intense effect and more prolonged than a dose twice as great of papaverine hydrochloride
  persistence of improvement of residual cortical reactivity: remaining substantially stable during the first 6 hours
  rabbits with particularly distinct effect: seven rabbits out of eight
[1]; 12.4 mg/kg intraduodenal (9.02 mg/kg papaverine base)
  average rise in the "R" index: 38.5%
[1]; 12.4 mg/kg intraduodenal, maximum effect between 2 and 4 hours, eight rabbits
  average improvement of residual cortical reactivity: 54.2%
[1]; intraduodenal
  activity on residual cortical reactivity compared with papaverine hydrochloride: much more marked activity
[1]; intraduodenal, collected results
  activity compared with papaverine hydrochloride: distinctly more active than papaverine hydrochloride
solubility
  solubility in methanol: Soluble
solubility; warm ethanol
  solubility in warm ethanol: Soluble
Platelet adhesivity; 2.88 γ/ml (2.10 γ/ml papaverine base)
  effect on platelet adhesivity: act favourably on the adhesivity rate of the platelets
[2]
  activity relative to known salts of papaverine: considerably greater than that of the known salts of papaverine used
[3]
  papaverinic activity compared with known papaverine salts: to a much higher degree; also recorded: distinctly higher than the salts of papaverine used until now

## COc1ccc(Cc2nccc3cc(OC)c(OC)cc23)cc1OC [papaverine thienyl-3-carboxylate, Papaverine thienyl-3-carboxylate]
solubility; hot ethanol
  solubility in hot ethanol: Soluble
solubility
  solubility in methanol: Soluble
solubility; water, read-out: solutions in water, content of product
  solubility: ≤ 10000 µg/mL

## COc1ccc(Cc2nccc3cc(OC)c(OC)cc23)cc1OC [papaverine]
[4]
  secondary effects: somnolence, constipation, increased excitability of the reflexes and digestive disorders
